Test results: patent US10543189B2, “2-acetylnaphtho[2,3-b]furan -4,9-dione for use on treating cancer” (Boston Biomedical, Inc., priority 2013, dated 2020)

Assay: Phase 1 extension study of higher strength capsule (DP2A): adverse events
Format: in vivo
Conditions: AE possibly related to BBI608
Text: However, with the higher strength capsules, we observed worsening gastrointestinal adverse effects including nausea, vomiting, and diarrhea in patients.
Additional studies were run using an oral formulation of the Compound of the Invention, specifically a higher strength capsule formulation (DP2A). As described herein, the Compound of the Invention blocks cancer stem cell (CSC) self-renewal and induces cell death in CSC as well as non-stem cancer cells by inhibiting Stat3, β-catenin, and Nanog pathways, and has shown potent anti-tumor and anti-metastatic activities pre-clinically. […] The studies described herein were designed as a phase 1 extension study to evaluate a formulation designed for pivotal trials to determine pharmacokinetics (PK) in patients with advanced cancer.
On Day 1, patients received a single 500 mg dose of an oral administration formulation of the Compound of the Invention (DP1). On Day 4 and Day 8, a higher strength capsule designed for pivotal trials (DP2A) was given with fasting then fed conditions. DP2A was then administered daily until disease progression or unacceptable toxicity. Endpoints were safety, PK and preliminary anticancer activity.

In the case of `CC(=O)c1cc2c(o1)C(=O)c1ccccc1C2=O` [Compound 1, 2-acetylnaphtho[2,3-b]furan-4,9-dione], the “Xerostomia, Grade 3, # Subjects” value (q 4 h dosing (N = 17)) is reported as 0, the “Xerostomia, Grade 3, %” value (q 4 h dosing (N = 17)) is reported as 0.0% and the “hypophosphatemia, Grade 1 or 2, # Subjects” value (q 4 h dosing (N = 17)) is reported as 1. For the same compound, the “hypophosphatemia, Grade 1 or 2, %” value (q 4 h dosing (N = 17)) was 5.9%, the “hypophosphatemia, Grade 3, # Subjects” value (q 4 h dosing (N = 17)) was 1 and the “hypophosphatemia, Grade 3, %” value (q 4 h dosing (N = 17)) was 5.9%. For the same compound, the “Abdominal cramps/pain, Grade 1 or 2, # Subjects” value (q 12 h dosing (N = 11)) was 5, the “Abdominal cramps/pain, Grade 1 or 2, %” value (q 12 h dosing (N = 11)) was 45.5% and the “Abdominal cramps/pain, Grade 3, # Subjects” value (q 12 h dosing (N = 11)) was 0. The “Abdominal cramps/pain, Grade 3, %” value (q 12 h dosing (N = 11)) was 0.0%, the “Anorexia, Grade 1 or 2, # Subjects” value (q 12 h dosing (N = 11)) was 1 and the “Anorexia, Grade 1 or 2, %” value (q 12 h dosing (N = 11)) was 9.1%. The “Anorexia, Grade 3, # Subjects” value (q 12 h dosing (N = 11)) was 0, the “Anorexia, Grade 3, %” value (q 12 h dosing (N = 11)) was 0.0% and the “Bloated abdomen, Grade 1 or 2, # Subjects” value (q 12 h dosing (N = 11)) was 0. The “Bloated abdomen, Grade 1 or 2, %” value (q 12 h dosing (N = 11)) was 0.0%, the “Bloated abdomen, Grade 3, # Subjects” value (q 12 h dosing (N = 11)) was 0 and the “Bloated abdomen, Grade 3, %” value (q 12 h dosing (N = 11)) was 0.0%. The “Dehydration, Grade 1 or 2, # Subjects” value (q 12 h dosing (N = 11)) was 0, the “Dehydration, Grade 1 or 2, %” value (q 12 h dosing (N = 11)) was 0.0% and the “Dehydration, Grade 3, # Subjects” value (q 12 h dosing (N = 11)) was 0. For the same compound, the “Dehydration, Grade 3, %” value (q 12 h dosing (N = 11)) was 0.0%, the “Depression, Grade 1 or 2, # Subjects” value (q 12 h dosing (N = 11)) was 1 and the “Depression, Grade 1 or 2, %” value (q 12 h dosing (N = 11)) was 9.1%. For the same compound, the “Depression, Grade 3, # Subjects” value (q 12 h dosing (N = 11)) was 0, the “Depression, Grade 3, %” value (q 12 h dosing (N = 11)) was 0.0% and the “Diarrhea, Grade 1 or 2, # Subjects” value (q 12 h dosing (N = 11)) was 7. For the same compound, the “Diarrhea, Grade 1 or 2, %” value (q 12 h dosing (N = 11)) was 63.6%, the “Diarrhea, Grade 3, # Subjects” value (q 12 h dosing (N = 11)) was 0 and the “Diarrhea, Grade 3, %” value (q 12 h dosing (N = 11)) was 0.0%. The “Dysgusia, Grade 1 or 2, # Subjects” value (q 12 h dosing (N = 11)) was 0, the “Dysgusia, Grade 1 or 2, %” value (q 12 h dosing (N = 11)) was 0.0% and the “Dysgusia, Grade 3, # Subjects” value (q 12 h dosing (N = 11)) was 0. The “Dysgusia, Grade 3, %” value (q 12 h dosing (N = 11)) was 0.0%, the “Fatigue/weakness, Grade 1 or 2, # Subjects” value (q 12 h dosing (N = 11)) was 4 and the “Fatigue/weakness, Grade 1 or 2, %” value (q 12 h dosing (N = 11)) was 36.4%. The “Fatigue/weakness, Grade 3, # Subjects” value (q 12 h dosing (N = 11)) was 1, the “Fatigue/weakness, Grade 3, %” value (q 12 h dosing (N = 11)) was 9.1% and the “Flatulence, Grade 1 or 2, # Subjects” value (q 12 h dosing (N = 11)) was 2. For the same compound, the “Flatulence, Grade 1 or 2, %” value (q 12 h dosing (N = 11)) was 18.2%, the “Flatulence, Grade 3, # Subjects” value (q 12 h dosing (N = 11)) was 0 and the “Flatulence, Grade 3, %” value (q 12 h dosing (N = 11)) was 0.0%. The “Nausea, Grade 1 or 2, # Subjects” value (q 12 h dosing (N = 11)) was 2, the “Nausea, Grade 1 or 2, %” value (q 12 h dosing (N = 11)) was 18.2% and the “Nausea, Grade 3, # Subjects” value (q 12 h dosing (N = 11)) was 0. The “Nausea, Grade 3, %” value (q 12 h dosing (N = 11)) was 0.0%, the “Rectal/Anal Burning, Grade 1 or 2, # Subjects” value (q 12 h dosing (N = 11)) was 1 and the “Rectal/Anal Burning, Grade 1 or 2, %” value (q 12 h dosing (N = 11)) was 9.1%. For the same compound, the “Rectal/Anal Burning, Grade 3, # Subjects” value (q 12 h dosing (N = 11)) was 0, the “Rectal/Anal Burning, Grade 3, %” value (q 12 h dosing (N = 11)) was 0.0% and the “Reflux (also heartburn), Grade 1 or 2, # Subjects” value (q 12 h dosing (N = 11)) was 0. The “Reflux (also heartburn), Grade 1 or 2, %” value (q 12 h dosing (N = 11)) was 0.0%, the “Reflux (also heartburn), Grade 3, # Subjects” value (q 12 h dosing (N = 11)) was 0 and the “Reflux (also heartburn), Grade 3, %” value (q 12 h dosing (N = 11)) was 0.0%. The “Urine Color Change, Grade 1 or 2, # Subjects” value (q 12 h dosing (N = 11)) was 0, the “Urine Color Change, Grade 1 or 2, %” value (q 12 h dosing (N = 11)) was 0.0% and the “Urine Color Change, Grade 3, # Subjects” value (q 12 h dosing (N = 11)) was 0. The “Urine Color Change, Grade 3, %” value (q 12 h dosing (N = 11)) was 0.0%, the “Vomiting, Grade 1 or 2, # Subjects” value (q 12 h dosing (N = 11)) was 1 and the “Vomiting, Grade 1 or 2, %” value (q 12 h dosing (N = 11)) was 9.1%. The “Vomiting, Grade 3, # Subjects” value (q 12 h dosing (N = 11)) was 0, the “Vomiting, Grade 3, %” value (q 12 h dosing (N = 11)) was 0.0% and the “Weight loss, Grade 1 or 2, # Subjects” value (q 12 h dosing (N = 11)) was 0. The “Weight loss, Grade 1 or 2, %” value (q 12 h dosing (N = 11)) was 0.0%, the “Weight loss, Grade 3, # Subjects” value (q 12 h dosing (N = 11)) was 0 and the “Weight loss, Grade 3, %” value (q 12 h dosing (N = 11)) was 0.0%. The “Xerostomia, Grade 1 or 2, # Subjects” value (q 12 h dosing (N = 11)) was 2, the “Xerostomia, Grade 1 or 2, %” value (q 12 h dosing (N = 11)) was 18.2% and the “Xerostomia, Grade 3, # Subjects” value (q 12 h dosing (N = 11)) was 0. For the same compound, the “Xerostomia, Grade 3, %” value (q 12 h dosing (N = 11)) was 0.0%, the “hypophosphatemia, Grade 1 or 2, # Subjects” value (q 12 h dosing (N = 11)) was 0 and the “hypophosphatemia, Grade 1 or 2, %” value (q 12 h dosing (N = 11)) was 0.0%. For the same compound, the “hypophosphatemia, Grade 3, # Subjects” value (q 12 h dosing (N = 11)) was 0 and the “hypophosphatemia, Grade 3, %” value (q 12 h dosing (N = 11)) was 0.0%.
